Reference: patent US20180207264A1, “PORCINE IMMUNE MODULATION MODEL” (Government of the United States as Represented by the …, priority 2017, published 2018)

Key:
[1] = system: 293T cells; assay: Biological function (phenotype, mobile cells) of androstene hormone treatments in 293T cells; assay type: cell-based, human; settings: androstene hormone 25 μM
Protocol: A non-toxic vehicle for administration of androstene hormones according to embodiments of the present invention was prepared from a first solution and a second solution. The first solution, comprising liposomal formulation, was placed in PEG 300 to a concentration of 5% and heated in a sonicating water bath to about 45° C. The second solution, comprising a selected hormone (one or more of 5Δ-androsten-3β, 17α-diol, 5Δ-androsten-3β, 17β-diol, or 5Δ-androsten-3β,7β,17β-triol), was placed in PEG 300 and heated in a sonicating water bath to about 45° C. The first and second solutions were then combine and stirred until dissolved.
Biological function was tested in 293T cells, which is a human embryonic cell line transformed with Large T antigen […] SV40. This hypotriploid (polyploid) cell line is particularly useful in such transformation studies and has very distinct phenotypes when grown. All androstene hormone treatment applications were at concentrations of 25 μM.

[2] = system: MDA-MB-231 breast cancer cell; assay: Cell death in hormone independent ER/PR negative breast cancer cell cultures; assay type: cell-based; settings: 25 μM β-AED, 25 μM β-AET, 5 nM E2; PEG 300 with LIPOFECTAMINE vehicle
Protocol: (§1) Hormone dependent, noninvasive, epithelial phenotype (ER/PR positive MCF-7 breast cancer cells) and hormone independent, invasive, mesenchymal phenotype (ER/PR negative MDA-MB-231 breast cancer cell) cell suspensions were acquired and prepared in complete medium (DMEM/F12, 10% FBS, 1% penicillin/streptomycin (Gibco)). Cellular concentration was adjusted to 2×10^5 cells/mL.
(§2) Androstene hormone solutions according to embodiments of the present invention were prepared from a first solution and a second solution. For the first solution, 3.0 mg of β-AED or 3-AET was added to warm PEG 300 to prepare 50 mM stock. For the second solution, 10 μL of LIPOFECTAMINE (3:1 DOSPA:DOPE) was introduced to 100 μL of PEG 300, mixed, and incubated in a water bath at 42° C. for 30 min. The first and second solutions were then mixed in a sonicator water bath at 42° C. for 1 hr. The final concentration was 50 mM β-AED (or AET, as used).
(§3) A β-estradiol solution was also prepared by adding 2.7 mg of β-estradiol to 200 μL warmed PEG 300 with LIPOFECTAMINE and then further diluted 1:1000 with PEG-300. The final concentration was 50 μM.
A diluted β-AED (or 3-AET) solution was prepared with complete medium at a final concentration of 50 μM (1:1000 dilute of 50 mM). Likewise, a diluted β-E2 solution was prepared with complete medium at a final concentration of 10 nM (1:5000 dilute of 50 μM). […]

[3] = system: MCF-7 breast cancer cells; assay: Cell death and cell growth in hormone dependent ER/PR positive breast cancer cell cultures; assay type: cell-based; settings: 5 nM E2; for MCF7 Cell Death Amount: 25 μM β-AED, 25 μM β-AET, PEG 300 with LIPOFECTAMINE vehicle
Protocol: as §1, §2, §3
A diluted β-AED (or 3-AET) solution was prepared with complete medium at a final concentration of 50 μM (1:1000 dilute of 50 mM). Likewise, a diluted β-E2 solution was prepared with complete medium at a final concentration of 10 nM (1:5000 dilute of 50 μM).
Using a 24-well plate, mixtures of 0.5 mL of cells per well with 0.5 mL of medium diluted hormone vehicle. Cell cultures were maintained at 90% humidity, 7% CO2, and 37° C.

[4] = grown for 5 days, 25 μM androstene hormone, PEG 300 with 5% LIPOFECTAMINE

C[C@]12CC[C@H]3[C@@H](CC=C4C[C@@H](O)CC[C@@]43C)[C@@H]1CC[C@@H]2O [β-AED, androst-5-ene-3β, 17β-diol]
Phenotype of 293T cells (cell islands, mobile cells, cell processes) ([1]; vehicle PEG 300): cell islands are larger and there is a significant reduction in mobile cells
Phenotype of 293T cells (cell islands, mobile cells, cell processes) ([1]; vehicle PEG 300 and LIPOFECTAMINE): drastic decrease in, or morphological change, in mobile elements
MDA-MB-231 Cell Death Amount [2]: Not observed
MCF7 Cell Death Amount [3]: Not observed
Cell growth / cell density of MCF-7 cells compared with vehicle (FIG. 14) [3, 4]: not as heath and there are areas of decreased density
Particles / cell bodies produced by MCF-7 cells in response to treatment [3, 4]: small particles

C[C@]12CC[C@H]3[C@@H]([C@@H](O)C=C4C[C@@H](O)CC[C@@]43C)[C@@H]1CC[C@@H]2O [β-AET, 5-androstene-3β,7β, 17β-triol]
MDA-MB-231 Cell Death Amount [2]: Not observed
MCF7 Cell Death Amount [3]: Not observed
